Data on seven molecules can be found in US20230270114A1, “FUNGICIDAL COMPOSITIONS” (SYNGENTA CROP PROTECTION AG, priority 2020, published 2023).

Like-named read-outs stand apart in the source and are kept apart here.

Series [1] relates to Magnaporthe grisea (Pyricularia oryzae). The experiment in a line: whole plant or invertebrate. The note with it: foliar, read-out: control of Magnaporthe grisea. It counts as in vivo.
The test system of series [2] is Glomerella lagenarium (Colletotrichum lagenarium). Description: Example A3: Glomerella lagenarium (Colletotrichum lagenarium) / liquid culture (anthracnose). It counts as cell-based. The conditions noted are these: Colletotrichum orbiculare; read-out: control of Glomerella lagenarium.
For series [3], the system named is Monographella nivalis (Microdochium nivale). The experiment in a line: Example A6: Monographella nivalis (Microdochium nivale) / liquid culture (foot rot cereals). It counts as cell-based. The note with it: read-out: control of Monographella nivalis.
Series [4] relates to Alternaria solani. Description: Example A1: Alternaria solani / tomato / leaf disc (early blight). It counts as in vivo. The note with it: foliar, tomato leaf disks inoculated 2 days after application, compared to untreated control.
Series [5] concerns Phakopsora pachyrhizi. Description: Example A8: Phakopsora pachyrhizi / soybean / preventative (soybean rust). It counts as in vivo. The conditions noted are these: foliar, soybean leaf disks preventative, inoculated one day after application, compared to untreated control.
The test system of series [6] is Puccinia recondita f. sp. tritici. The series is classed as in vivo. The conditions noted are these: foliar, wheat leaf disc preventative, inoculated 1 day after application, compared to untreated control.
In series [7] the test system is Mycosphaerella graminicola (Septoria tritici). Description: Example A14: Mycosphaerella graminicola (Septoria tritici) / liquid culture (Septoria blotch). The series is classed as cell-based. The conditions noted are these: Zymoseptoria tritici; read-out: control of Mycosphaerella graminicola.
For series [8], the system named is Botryotinia fuckeliana (Botrytis cinerea). Description: Example A2: Botryotinia fuckeliana (Botrytis cinerea) / liquid culture (gray mould). The series is classed as cell-based. The note with it: read-out: control of Botryotinia fuckeliana. From the text:
Example A2: Botryotinia Fuckeliana (Botrytis Cinerea) / Liquid Culture (Gray Mould) Conidia of the fungus from cryogenic storage are directly mixed into nutrient broth (Vogels broth). […] […].38.

In series [9] the test system is Puccinia recondita f. sp. tritici. The series is classed as in vivo. The conditions noted are these: foliar, 24 h, wheat leaf disc curative, applied 1 day after inoculation, compared to untreated control.
Series [10] concerns Pyrenophora teres. The experiment in a line: Example A12: Pyrenophora teres / barley / leaf disc preventative (net blotch). It counts as in vivo. The note with it: foliar, inoculated 2 days after application, compared to untreated control.
The subject of series [11] is Mycosphaerella arachidis (Cercospora arachidicola). Description: Example A7: Mycosphaerella arachidis (Cercospora arachidicola) / liquid culture (early leaf spot). The note with it: read-out: control of Mycosphaerella arachidis. It counts as cell-based.

For `Cc1sc(N(C(=O)COCc2ccccc2)c2cc(F)nc(F)c2)nc1C(=O)NC1CCC1(C)C` (centres unmarked) [X.14, 2-[(2-benzyloxyacetyl)-(2,6-difluoro-4-pyridyl)amino]-N-(2,2-dimethylcyclobutyl)-5-methyl-thiazole-4-carboxamide], the pest or weed control at 200 ppm in series [1], in [4], in [5], in [6], in series [9] and in series [10] was no less than 80% each time. Besides, the inhibition of growth at 20 ppm was no less than 80% in series [2], no less than 80% in series [3], no less than 80% in [7] and no less than 70% in series [8].
For `CCOCC(=O)N(c1cc(F)nc(F)c1)c1nc(C(=O)NC2CCC2(C)C)c(C)s1` (centres unmarked) [X.15, 2-[(2,6-difluoro-4-pyridyl)-(2-ethoxyacetyl)amino]-N-(2,2-dimethylcyclobutyl)-5-methyl-thiazole-4-carboxamide], the pest or weed control at 200 ppm in series [1], in series [4], in [5], in series [6], in series [9] and in series [10] was no less than 80% in each case. In addition, the inhibition of growth at 20 ppm in series [2] was no less than 80%; in [3], no less than 80%; in series [7] it was no less than 80%; in series [8], no less than 70%.
Take `COCC(=O)N(c1cc(F)nc(F)c1)c1nc(C(=O)NC2CCC2(C)C)c(C)s1` (centres unmarked) [X.29, 2-[(2,6-difluoro-4-pyridyl)-(2-methoxyacetyl)amino]-N-(2,2-dimethylcyclobutyl)-5-methyl-thiazole-4-carboxamide]: the pest or weed control at 200 ppm in series [1], in series [4], in [5], in [6], in series [9] and in series [10] was no less than 80% throughout. Further, the inhibition of growth at 20 ppm in series [11] is no less than 80%; in series [2], no less than 80%; in series [3], no less than 80%; in series [7] it was no less than 80%; in series [8] it was no less than 70%.
With `Cc1sc(N(C=O)c2cc(F)nc(F)c2)nc1C(=O)NC1CCC1(C)C` (centres unmarked) [X.33, 2-[(2,6-difluoro-4-pyridyl)-formyl-amino]-N-(2,2-dimethylcyclobutyl)-5-methylthiazole-4-carboxamide], the pest or weed control at 200 ppm in series [1], in [4], in [5], in series [6], in [9] and in series [10] was no less than 80% throughout. Also, the inhibition of growth at 20 ppm in series [11] was no less than 80%; in [2] it was no less than 80%; in series [3], no less than 80%; in series [7], no less than 80%; in series [8], no less than 70%.
With `CCOC(=O)C(=O)N(c1cc(F)nc(F)c1)c1nc(C(=O)NC2CCC2(C)C)c(C)s1` (centres unmarked) [X.34, ethyl 2-[(2,6-difluoro-4-pyridyl)-[4-[(2,2-dimethylcyclobutyl)carbamoyl]-5-methyl-thiazol-2-yl]amino]-2-oxo-acetate], the pest or weed control at 200 ppm in series [1], in series [4], in [5], in [6], in [9] and in [10] was no less than 80% throughout. Moreover, the inhibition of growth at 20 ppm was no less than 80% in series [11]; no less than 80% in series [2]; no less than 80% in series [3]; no less than 80% in series [7]; no less than 70% in [8].
Take `Cc1sc(N(C(=O)c2ccccc2)c2cc(F)nc(F)c2)nc1C(=O)NC1CCC1(C)C` (centres unmarked) [X.35, 2-[benzoyl-(2,6-difluoro-4-pyridyl)amino]-N-(2,2-dimethylcyclobutyl)-5-methylthiazole-4-carboxamide]: the pest or weed control at 200 ppm in series [1], in series [4], in [5], in series [6] and in [10] was no less than 80% in each case. For the same molecule, the inhibition of growth at 20 ppm in series [2] is no less than 80%; in [3], no less than 80%; in series [8], no less than 70%.
As for `Cc1sc(N(C(=O)C(C)C)c2cc(F)nc(F)c2)nc1C(=O)NC1CCC1(C)C` (centres unmarked) [X.38, 2-[(2,6-difluoro-4-pyridyl)-(2-methylpropanoyl)amino]-N-(2,2-dimethylcyclobutyl)-5-methyl-thiazole-4-carboxamide], the melting point – broadly, the temperature, or range, at which the solid turns liquid – was 123 to 126 °C. Also, the pest or weed control at 200 ppm in [1] is no less than 80%. The inhibition of growth at 20 ppm in series [2] was no less than 80%. Moreover, in series [3], the inhibition of growth at 20 ppm was no less than 80%. This molecule registered a pest or weed control at 200 ppm in series [4] of no less than 80%. The molecule also registered a pest or weed control at 200 ppm in [5] of no less than 80%. Also, the pest or weed control at 200 ppm in series [6] is no less than 80%. In addition, in [8], the inhibition of growth at 20 ppm is no less than 70%. The molecule further displayed a pest or weed control at 200 ppm in series [9] of no less than 80%. The molecule further showed a pest or weed control at 200 ppm in [10] of no less than 80%.
